Experimental data published in publication PMC9952496, “A Novel Strategy for the Design of Aurein 1.2 Analogs with Enhanced Bioactivities by Conjunction of Cell-Penetrating Regions” (Antibiotics, 2023).
Read-outs that look alike come from different tables or passages of the source. Residues, ends and D or L forms follow the SMILES beside them.

Key:
[1] = tested on: U251MG glioblastoma astrocytoma cell line; assay type: cell-based, human
Experimental: (§1) The MTT test measures the anti-proliferation of the peptide by measuring MTT conversion by live cells into a formazan that cannot be dissolved in water. In this section, three cancer cell lines: human non-small-cell lung cancer cell line, NCI-H838 (ATCC-CRL-5844); human glioblastoma astrocytoma cell line, U251MG (ECACC-09063001) and human breast cancer cell line, MCF-7 (ATCC-HTB-22), were selected for the anti-proliferation study. H838 cells were cultured in Roswell Park Memorial Institute (RPMI)-1640 medium (Life Technologies, Paisley, UK) mixed with 10% (v/v) fetal bovine serum (FBS) and 1% penicillin-streptomycin (Gibco, 10,000 U/mL). U251MG and MCF-7 cells were cultured in Dulbecco’s Modified Eagle medium (DMEM) (Life Technologies, Carlsbad, CA) mixed with 10% (v/v) FBS and 1% penicillin–streptomycin (Gibco, 10,000 U/mL). The cancer cells were first seeded into the 96-well plates at a cell density of 8000 per well for 20–24 h at 37 °C. Then, the cells were starved by switching the FBS containing complete growth medium to FBS lacking serum-free medium for 4 h. Peptides were dissolved to a series of final concentrations from 10^−9 to 10^−4 M in ddH2O. After starvation, 1 μL of the peptide with 99 μL of the serum-free medium was added to the plate and then cultured for 20–24 h.; 10 µL of MTT (3-(4,5-dimethylthiazol-2-yl)-2,5-diphenyltetrazolium bromide, 5 mg/mL, Sigma, UK) were loaded into each well in the dark and incubated at 37 °C. Subsequently, the liquid in each well was removed completely before […] of DMSO was added to each well to dissolve the formazan. The plate was read at 570 nm using a Synergy HT plate reader.

[2] = tested on: NCI-H838 non-small-cell lung cancer cell line; assay type: cell-based, human
Experimental: as §1

[3] = tested on: MCF-7 breast cancer cell line; assay type: cell-based, human
Experimental: as §1

E. faecalis (NCTC 12697) = assay type: cell-based; conditions: for MIC: NCTC 12697; for MBC: NCTC 12697, 20 h
Experimental: (§2) The antimicrobial activity evaluation was conducted by use of MIC and MBC assays, using three Gram-positive bacteria and three Gram-negative bacteria. The peptides were dissolved in dimethyl sulfoxide (DMSO) for a final concentration series from 1 to 128 µM; 20 µmol of norfloxacin was applied as the positive control, and one µL of DMSO was used as the negative control. The bacteria were inoculated in the corresponding cultural media overnight and subcultured to the desired OD value (OD = 0.23 for Gram-positive bacteria, OD = 0.4 for Gram-negative bacteria corresponding to 5 × 10^5 CFU/mL); 20 mL of culture broth and 100 µL of subcultured bacteria were mixed before being loaded onto the plate, and 1 µL of the peptide cocktail was mixed with 99 µL of diluted bacteria in 96 wells plates and then was incubated for 20 to 24 h at 37 °C. Afterward, the OD value (λ = 550 nm) of each well was detected using a Synergy HT plate reader (Biotech, Minneapolis, MN, USA). The MIC value was the lowest concentration without bacterial growth visually. Subsequently, 10 µL of the solution in each clear well was loaded onto an agar plate and cultured for 20 h. The lowest concentration without colony growth was regarded as the MBC.

[4] = tested on: P. aeruginosa (ATCC 9027); assay type: cell-based; conditions: for MIC: ATCC 9027; for MBC: ATCC 9027, 20 h
Experimental: as §2

[5] = tested on: S. aureus (ATCC CRM 6538); assay type: cell-based; conditions: for MIC: ATCC CRM 6538; for MBC: ATCC CRM 6538, 20 h
Experimental: as §2

E. coli (NCTC 8739) = assay type: cell-based; conditions: for MIC: NCTC 8739; for MBC: NCTC 8739, 20 h
Experimental: as §2

[6] = tested on: K. pneumoniae (ATCC 43816); assay type: cell-based; conditions: for MIC: ATCC 43816; for MBC: ATCC 43816, 20 h
Experimental: as §2

MRSA (ATCC 12493) = assay type: cell-based; conditions: for MIC: ATCC 12493; for MBC: ATCC 12493, 20 h
Experimental: as §2

horse erythrocytes [7] = assay: Haemolytic activity evaluation; conditions: at the peptide's MIC value for E. coli; horse erythrocytes in PBS, 2 h at 37 °C, absorbance 490 nm, Triton X-100 positive control, n = 9; listed as KIL-1
Experimental: (§3) The hemolytic activity of the peptides on mammalian erythrocytes was examined using 2% defibrinated horse blood (TCS Biosciences Ltd., Buckinghamshire, UK). Firstly, the defibrinated horse blood was washed; 2 mL of horse blood was added into a 50 mL tube; then, 30 mL of sterilized PBS was added dropwise into the tube, and the tube was mixed in a shaking bed and then centrifuged at 930× g for 10 min. The procedure was repeated until the supernatant of the centrifuge tube was clear. Afterward, the blood cell pellet was dispersed to make a 4% suspension (v/v) by adding 50 mL of sterilized PBS. Peptides were dissolved using PBS to achieve final concentrations of 1–128 μM and then mixed with the blood cell suspensions in 1.5-mL tubes. The blood cell suspensions treated with 0.1% Triton X-100 and PBS were used as positive controls and negative controls, respectively. Then the peptide-blood mixture was incubated at 37 °C degrees for 2 h in an incubator. After incubation, the tubes were centrifuged at 930× g for 10 min, and 100 µL of the supernatants were loaded into wells of the 96-well plates. The absorbance was obtained by Synergy HT plate reader at 490 nm. The hemolytic activity was calculated using the formula, hemolysis = (absorbance of experimental groups − absorbance of negative control))/(absorbance of positive control − absorbance of negative control) × 100%.

[8] = tested on: Gram-positive bacteria biofilm; assay type: cell-based; conditions: range over Gram-positive bacteria
Experimental: (§4) The minimum biofilm inhibition and minimum biofilm eradication concentrations were obtained by use of the MBIC and MBEC assays. The anti-biofilm activity of the peptides was evaluated by use of S. aureus (ATCC 6538), MRSA (NCTC 12493), E. faecalis (NCTC 12493), E. coli (ATCC CRM 8739), K. pneumoniae (ATCC43816), and P. aeruginosa (ATCC CRM 9027).
(§5) For the MBIC assay, the bacteria were cultured in tryptic soy broth (TSB) broth with 1% glucose for Gram-positive bacteria biofilm and Luria Bertani (LB) broth with 1% glucose for Gram-negative bacteria biofilm. Bacteria were inoculated, subcultured, and diluted in the same method described before. The peptides were prepared in a concentration of 1–128 µM; 1 µL of peptide and 99 µL of subcultured bacteria were mixed in 96 well plates and cultured at 37 °C with a shear force of 200 rpm in a humid environment for 20–24 h. Then, the plate was washed with 130 µL of PBS twice, and 130 µL of methanol was added to stabilize the biofilm overnight; then, the plate was dyed with 100 mL of 0.5% crystal violet for 15 min. The stained biofilm was then washed once more and allowed to dry overnight. The stain was dissolved in acetic acid at a 30% concentration, and it was shaken for 15 min to ensure homogeneity. A Synergy HT plate reader was then used to read the plate at 595 nm. […]

horse erythrocytes [9] = conditions: red cells of horse, 2 h
Experimental: as §3

[10] = tested on: Gram-negative bacteria biofilm; conditions: range over Gram-negative bacteria
Experimental: as §4, §5

Gram-positive bacteria = assay: MIC assay, summary over Gram-positive bacteria; assay type: cell-based; conditions: range over three Gram-positive bacteria
Experimental: as §2

| SMILES | IC50 [1] [µM] | IC50 [2] [µM] | IC50 [3] [µM] | MIC (E. faecalis (NCTC 12697)) [µM] | MBC (E. faecalis (NCTC 12697)) [µM] | MIC [4] [µM] | MBC [4] [µM] | MIC [5] [µM] | MBC [5] | MIC (E. coli (NCTC 8739)) [µM] | MBC (E. coli (NCTC 8739)) [µM] | MIC [6] [µM] | MBC [6] [µM] | MIC (MRSA (ATCC 12493)) [µM] | MBC (MRSA (ATCC 12493)) [µM] | other results |
| --- | --- | --- | --- | --- | --- | --- | --- | --- | --- | --- | --- | --- | --- | --- | --- | --- |
| CC[C@H](C)[C@H](NC(=O)[C@H](CCCCN)NC(=O)[C@H](CCCCN)NC(=O)[C@@H](NC(=O)[C@@H](NC(=O)[C@H](CCCCN)NC(=O)[C@H](CCCCN)NC(=O)[C@@H](NC(=O)[C@@H](NC(=O)[C@H](CC(=O)O)NC(=O)[C@H](Cc1ccccc1)NC(=O)[C@H](CC(C)C)NC(=O)CN)[C@@H](C)CC)[C@@H](C)CC)[C@@H](C)CC)[C@@H](C)CC)C(=O)N[C@@H](C)C(=O)N[C@@H](CCC(=O)O)C(=O)N[C@@H](CO)C(=O)N[C@@H](Cc1ccccc1)C(N)=O [IK-1] (H-GLFDIIKKIIKKIAESF-NH2) | 3.4 ± 0.71 | 3.5 ± 0.74 | 3 ± 0.76 | 8 | 16 | 16 | 32 | 8 | 8 µM | 8 | 8 | >128 | >128 | 16 | 16 | – |
| CC[C@H](C)[C@H](NC(=O)[C@H](CCCCN)NC(=O)[C@H](CCCCN)NC(=O)[C@@H](NC(=O)[C@@H](NC(=O)[C@H](CCCCN)NC(=O)[C@H](CCCCN)NC(=O)[C@@H](NC(=O)[C@@H](NC(=O)[C@H](CCCCN)NC(=O)[C@H](CCCCN)NC(=O)[C@@H](NC(=O)[C@@H](NC(=O)[C@H](CC(=O)O)NC(=O)[C@H](Cc1ccccc1)NC(=O)[C@H](CC(C)C)NC(=O)CN)[C@@H](C)CC)[C@@H](C)CC)[C@@H](C)CC)[C@@H](C)CC)[C@@H](C)CC)[C@@H](C)CC)C(=O)N[C@@H](C)C(=O)N[C@@H](CCC(=O)O)C(=O)N[C@@H](CO)C(=O)N[C@@H](Cc1ccccc1)C(N)=O [IK-2] (H-GLFDIIKKIIKKIIKKIAESF-NH2) | 3.6 ± 0.18 | 3.7 ± 0.77 | 3.2 ± 0.87 | >128 | >128 | 64 | 128 | >128 | >128 µM | 8 | 8 | 16 | 16 | >128 | >128 | – |
| CC[C@H](C)[C@H](NC(=O)[C@H](CCCCN)NC(=O)[C@H](CCCCN)NC(=O)[C@@H](NC(=O)[C@@H](NC(=O)[C@H](CCCCN)NC(=O)[C@H](CCCCN)NC(=O)[C@@H](NC(=O)[C@@H](NC(=O)[C@H](CCCCN)NC(=O)[C@H](CCCCN)NC(=O)[C@@H](NC(=O)[C@@H](NC(=O)[C@H](CC(=O)O)NC(=O)[C@H](Cc1ccccc1)NC(=O)[C@H](CC(C)C)NC(=O)CN)[C@@H](C)CC)[C@@H](C)CC)[C@@H](C)CC)[C@@H](C)CC)[C@@H](C)CC)[C@@H](C)CC)C(N)=O [IK-3] (H-GLFDIIKKIIKKIIKKI-NH2) | 3.3 ± 0.63 | 2.99 | 3.4 ± 0.71 | 16 | 32 | 16 | 16 | 16 | 16 µM | 4 | 4 | 8 | 8 | 16 | 32 | – |
| CC[C@H](C)[C@H](NC(=O)[C@H](CC(=O)O)NC(=O)[C@H](Cc1ccccc1)NC(=O)[C@H](CC(C)C)NC(=O)CN)C(=O)N[C@H](C(=O)N[C@@H](CCCCN)C(=O)N[C@@H](CCCCN)C(=O)N[C@@H](CC(C)C)C(=O)N[C@@H](C)C(=O)N[C@@H](CCC(=O)O)C(=O)N[C@@H](CO)C(=O)N[C@@H](Cc1ccccc1)C(N)=O)[C@@H](C)CC [KLA-1] (H-GLFDIIKKLAESF-NH2) | 34.1 ± 0.21 | 29.4 ± 0.22 | 17.6 ± 0.79 | 32 | 32 | 64 | 128 | 16 | 16 µM | 8 | 16 | 32 | 32 | 16 | 32 | Hemolysis (horse erythrocytes [7]): almost no hemolysis was detected |
| CC[C@H](C)[C@H](NC(=O)[C@H](CC(=O)O)NC(=O)[C@H](Cc1ccccc1)NC(=O)[C@H](CC(C)C)NC(=O)CN)C(=O)N[C@H](C(=O)N[C@@H](CCCCN)C(=O)N[C@@H](CCCCN)C(=O)N[C@@H](CC(C)C)C(=O)N[C@@H](C)C(=O)N[C@@H](CCCCN)C(=O)N[C@@H](CC(C)C)C(=O)N[C@@H](C)C(=O)N[C@@H](CCC(=O)O)C(=O)N[C@@H](CO)C(=O)N[C@@H](Cc1ccccc1)C(N)=O)[C@@H](C)CC [KLA-2] (H-GLFDIIKKLAKLAESF-NH2) | 5 ± 0.12 | 4.6 ± 0.12 | 3.55 | 16 | 16 | 16 | 16 | – | 2/2 μM | 2 | 2 | 4 | 4 | 4 | 4 | MBIC [8]: 2 to 16 µM |
| CC[C@H](C)[C@H](NC(=O)[C@H](CCCCN)NC(=O)[C@H](CCCCN)NC(=O)[C@@H](NC(=O)[C@@H](NC(=O)[C@H](CC(=O)O)NC(=O)[C@H](Cc1ccccc1)NC(=O)[C@H](CC(C)C)NC(=O)CN)[C@@H](C)CC)[C@@H](C)CC)C(=O)N[C@@H](C)C(=O)N[C@@H](CCC(=O)O)C(=O)N[C@@H](CO)C(=O)N[C@@H](Cc1ccccc1)C(N)=O [aurein 1.2] (H-GLFDIIKKIAESF-NH2) | 38.4 | 26.9 | 25.9 ± 0.79 | 32 | 32 | 64 | 128 | 8 | 8 µM | 16 | 16 | 64 | 64 | 16 | 16 | HC50 (horse erythrocytes [9]): around 30 μM; Hemolysis (horse erythrocytes [9]): 20.56%; concentration effective in prevention of biofilm formation (MBIC) [10]: 64 to 128 µM; MICs against Gram-positive bacteria (Gram-positive bacteria): 8 to 32 µM |
